Measured values: PubChem BioAssay AID1963429 (Molecular Pharmacology Branch, DTP, NCI, 2024)

System: 126254-015-R-J1-PDC complex spheroid growth, % test/control
Assay: Anticancer human tumor 126254-015-R-J1-PDC patient-derived soft tissue sarcoma cell line growth inhibition [Asc]
Conditions: for IC50: curve of first compound; for viability, T/C: stronger effect = lower value
Procedure: Multicellular complex tumor spheroid response to apoptosis pathway targeting inhibitors Alrizomadlin, Pelcitoclax, and Dasminapant in combination with a variety of drugs and investigational agents in selected tumor cell lines
The MDM2 inhibitor alrizomadlin, the Bcl-2/Bcl-xL inhibitor pelcitoclax, and the IAPs inhibitor dasminapant were evaluated both individually and in combination with standard of care and investigational anticancer small molecules within a complex spheroid model of solid tumors. . Complex spheroids include a stromal component modeled by human endothelial cells (HUVEC) and fibroblasts modeled by human mesenchymal stem cells (MSCs). The concentration ranges selected for each drug and investigational agent were based upon clinically achievable concentrations if the clinical Cmax of the agent was known.
Compounds. The drugs and investigational agents: alrizomadlin (APG-115; NSC831270), pelcitoclax (APG-1252; NSC835773), dasminapant (APG-1387;NSC834197), TAK-243 (NSC785004), copanlisib (NSC809693), olaparib (NSC753686), talazoparib (NSC767125), cobimetinib (NSC 768068), eltanexor (KPT-8602, NSC 794443), abemaciclib (NSC 768073), sotorasib (NSC818433), adagrasib (NSC 831453), MRTX-1133 (NSC 836407), Iadademestat (ORY1001, NSC 806812), and RMC-4630 (NSC839698), were obtained from the NCI Developmental Therapeutics Program Chemical Repository. The FDA-approved anticancer drug set is available from the Developmental Therapeutics Program at https://dtp.cancer.gov/organization/dscb/obtaining/available plates.htm. […] The stock solutions were prepared in dimethyl sulfoxide (DMSO, Sigma-Aldrich, St. Louis, MO, cat. D2650) at 800-fold the tested concentration and stored at -70 degrees C prior to their use. All drugs and investigational agents were tested over a range starting from a high concentration at or near the clinical Cmax and decreasing in half-log increments. If the clinical Cmax for an agent had not been determined, the highest concentration tested was 10 microM.
The patient-derived cancer (PDC) cell lines include five colon adenocarcinomas: 186277-243-T-J2-PDC, 616215-338-R-J1-PDC, 439559-082-T-J2-PDC, 463943-066-T-J2-PDC, and 519858-162-T-J1-PDC; three pancreatic carcinomas: 323965-272-R-J2-PDC, 521955-158-R6-J3-PDC, and 521955-158-R2-J5-PDC; two uterine sarcomas: 327498-152-R-J2-PDC and 993429-296-R-J1-PDC; two rhabdomyosarcomas: 755483-174-R-J1-PDC and 772245-204-R-J1-PDC; two soft tissue sarcomas: 126254-015-R-J1-PDC and 494315-158-R-J1-PDC; two malignant fibrous histiocytomas: 317291-083-R-J1-PDC and 596521-263-R-J1-PDC; two breast carcinomas: 171881-019-R-J1-PDC and 885512-296-R-J2-PDC; and one ovarian carcinoma: 6556581-035-R-J-PDC were obtained from the NCI PDMR, (https://pdmr.cancer.gov). The established cell lines HSSY-2 synovial sarcoma (RRID:CVCL 8719), SYO-1 synovial sarcoma (RRID:CVCL_7146), MPNST malignant peripheral neural sheath tumor were obtained from the Sloan Kettering Institute. The following established cell lines were purchased from the American Type Culture Collection (ATCC, Manassas, VA), Sor the received from the NCI repository:, PANC-1 pancreatic carcinoma (CRL-1469, RRID:CVCL_0480), OVCAR-5 ovarian carcinoma (RRID:CVCL_1628), OVCAR-8 ovarian carcinoma (RRID:CVCL_1629), , MCF-7 breast carcinoma (CRL-12584, RRID:CVCL_0031), MDA-MB-231 breast carcinoma (CRL-12532, RRID:CVCL_0062), NCI-H1876 small cell lung carcinoma (CRL-5902, RRID:CVCL_1503), NCI-H510A small cell lung carcinoma (HTB-184, RRID:CVCL_1565), NCI-H1417 (CRL-5869, RRID:CVCL_1469), and NCI-H196 small cell lung carcinoma (CRL-5823, RRID:CVCL_1509). Dr. Peter Houghton (Greehey Children's Cancer Research Institute, University of Texas Health Science Center, San Antonio, TX) provided Rh-18 rhabdomyosarcoma (RRID:CVCL_1659). Pooled donor human umbilical vein endothelial cells (HUVEC, Lonza, cat. CC-2519) and human mesenchymal stem cells (hMSC, Lonza, cat. PT-2501) were purchased from Lonza (Walkersville, MD).
Cell Culture. […]
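Also: spheroids exposed to compound for seven days.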
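For viability, T/C in this document: 100% = DMSO vehicle control wells.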

- IC50 (second compound 0.1 µM): > 1000 nM
- IC50 (second compound 0.316 µM): 90.5 nM
- IC50 (second compound 1 µM): 107 nM
- IC50 (second compound 3.16 µM): 74.8 nM
- IC50 (second compound 10 µM): 59.8 nM
SMILES: CNC(C)C(=O)NC1CN(S(=O)(=O)c2cccc(S(=O)(=O)N3CCC4CCC(C(=O)NC(c5ccccc5)c5ccccc5)N4C(=O)C(NC(=O)C(C)NC)C3)c2)CCC2CCC(C(=O)NC(c3ccccc3)c3ccccc3)N2C1=O (stereo not given) + Cc1c(S(C)(=O)=O)c(-c2cc(F)cc(N3CCN(c4ccc(NS(=O)(=O)c5ccc(NC(CCN6CCC(C(=O)OCCCP(=O)(O)O)CC6)CSc6ccccc6)c(S(=O)(=O)C(F)(F)F)c5)cc4)CC3)c2)c(-c2ccc(Cl)cc2)n1C(C)C
- viability, T/C (second compound 0.1 µM, first compound 0.00316 µM): 83%
- viability, T/C (second compound 0.1 µM, first compound 0.01 µM): 84.8%
- viability, T/C (second compound 0.1 µM, first compound 0.0316 µM): 67.3%
- viability, T/C (second compound 0.1 µM, first compound 0.1 µM): 55.6%
- viability, T/C (second compound 0.1 µM, first compound 0.316 µM): 56.2%
- viability, T/C (second compound 0.1 µM, first compound 1 µM): 45%
- viability, T/C (second compound 0.316 µM, first compound 0.00316 µM): 85.8%
- viability, T/C (second compound 0.316 µM, first compound 0.01 µM): 81.9%
- viability, T/C (second compound 0.316 µM, first compound 0.0316 µM): 63.1%
- viability, T/C (second compound 0.316 µM, first compound 0.1 µM): 47.3%
- viability, T/C (second compound 0.316 µM, first compound 0.316 µM): 49.7%
- viability, T/C (second compound 0.316 µM, first compound 1 µM): 36.5%
- viability, T/C (second compound 1 µM, first compound 0.00316 µM): 87.5%
- viability, T/C (second compound 1 µM, first compound 0.01 µM): 81.5%
- viability, T/C (second compound 1 µM, first compound 0.0316 µM): 66.9%
- viability, T/C (second compound 1 µM, first compound 0.1 µM): 47.9%
- viability, T/C (second compound 1 µM, first compound 0.316 µM): 46.9%
- viability, T/C (second compound 1 µM, first compound 1 µM): 36.3%
- viability, T/C (second compound 3.16 µM, first compound 0.00316 µM): 90.7%
- viability, T/C (second compound 3.16 µM, first compound 0.01 µM): 79%
- viability, T/C (second compound 3.16 µM, first compound 0.0316 µM): 60.7%
- viability, T/C (second compound 3.16 µM, first compound 0.1 µM): 46.1%
- viability, T/C (second compound 3.16 µM, first compound 0.316 µM): 38.1%
- viability, T/C (second compound 3.16 µM, first compound 1 µM): 32.6%
- viability, T/C (second compound 10 µM, first compound 0.00316 µM): 80.2%
- viability, T/C (second compound 10 µM, first compound 0.01 µM): 78.6%
- viability, T/C (second compound 10 µM, first compound 0.0316 µM): 64.3%
- viability, T/C (second compound 10 µM, first compound 0.1 µM): 38.2%
- viability, T/C (second compound 10 µM, first compound 0.316 µM): 30.6%
- viability, T/C (second compound 10 µM, first compound 1 µM): 27.8%
